Measurements from US20090047269A1, “METABOLOMIC CANCER TARGETS” (The Regents of the University of Michigan, priority 2007, published 2009).

What was measured:
Assay type in all cases: cell-based
EGFR = assay: Immunoblot analysis of EGFR phosphorylation and total EGFR; conditions: for total EGFR levels upon treatment: prostate epithelial cells
[1] = system: immortalized benign RWPE prostate cells; assay: Modified Boyden chamber matrigel invasion assay, RWPE cells; conditions: for induction of invasion upon exogenous addition / increased invasion upon sarcosine addition compared to control: benign prostate epithelial cells; for increased invasion upon sarcosine addition compared to control: alanine as control
Method: To investigate the biological role of sarcosine elevation in prostate cancer, prostate cancer cell lines VCaP, DU145, 22RV1 and LNCaP and their benign epithelial counterparts, primary benign prostate epithelial cells PrEC and immortalized benign RWPE prostate cells were used.
To determine if sarcosine plays a role in this process, it was added directly to non-invasive benign prostate epithelial cells. Alanine (an isomer of sarcosine) was used as a control for these experiments. […] The present invention is not limited to a particular mechanism. Indeed, an understanding of the mechanism is not necessary to practice the present invention.
To understand the role of sarcosine in prostate cancer progression, levels of the metabolite was measured in a panel of prostate-derived cell lines. […] The knock down studies were carried out using specific siRNA and the extent of target inhibition was assessed using Q-PCR. The in vitro Boyden chamber assay was used to qualify the modulation in the invasiveness of the knock down cells.

src = assay: Immunoblot analysis of src phosphorylation; conditions: prostate epithelial cells (PrEC), compared to alanine-treated controls
Text: (§1) Also total EGFR levels were elevated upon treatment with alanine or sarcosine. […] This observation was further strengthened using both antibody-mediated inhibition of EGFRactivity and siRNA-mediated knock-down of receptor levels.

p38MAPK = assay: Immunoblot analysis of p38MAPK phosphorylation; conditions: sarcosine-treated PrEC samples
Text: as §1

[2] = RWPE cells, control non-target siRNA-transfected

With `C[C@H](N)C(=O)O` [alanine, reference compound] the “total EGFR levels upon treatment” value (EGFR) was “elevated”.

For `NCC(=O)O` [glycine], the “invasion upon amino acid addition, mean±SEM” value ([1]; RWPE cells with GNMT knockdown) was 0.20±0.03, the “invasion upon amino acid addition, mean±SEM” value [1, 2] was 0.46±0.04 and the “induction of invasion upon exogenous addition” value [1] was “induced invasion in these cells, although to a lesser degree than sarcosine”.

`CNCC(=O)O` [sarcosine] was tested, and the “src phosphorylation upon treatment” value (src) was “time-dependent increase”, the “p38MAPK phosphorylation upon treatment” value (p38MAPK) was “phosphorylation of p38MAPK” and the “increased invasion upon sarcosine addition compared to control” value ([1]; 25 μM) was 1.64 fold. For the same molecule, the “increased invasion upon sarcosine addition compared to control” value ([1]; 50 μM) was 2.57 fold, the “invasion upon amino acid addition, mean±SEM” value ([1]; RWPE cells with GNMT knockdown) was 0.64±0.07 and the “invasion upon amino acid addition, mean±SEM” value [1, 2] was 0.65±0.05. For the same molecule, the “induction of invasion upon exogenous addition” value [1] was “imparted an invasive phenotype”, the “total EGFR levels upon treatment” value (EGFR) was “elevated” and the “EGFR phosphorylation upon treatment” value (EGFR; prostate epithelial cells (PrEC), compared to alanine-treated controls) was “time-dependent increase”.
